From the supplement of paper PMC9663587

Assays:
Neratinib/HKI272 = compound: CCOc1cc2ncc(C#N)c(Nc3ccc(OCc4ccccn4)c(Cl)c3)c2cc1NC(=O)/C=C/CN(C)C [Neratinib/HKI272]; test: increase in dead-cell fraction, 72 h; higher = more death;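 also: breast cancer cell lines in 384-well plates, stained with Hoechst plus LIVE/DEAD far red dye and imaged, cells above an LDR intensity threshold counted dead, Hoechst-negative corpses included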
[1] = compound: CCc1cnn2c(NCc3ccc[n+]([O-])c3)cc(N3CCCC[C@H]3CCO)nc12; test: as above
[2] = compound: CC(=O)c1c(C)c2cnc(Nc3ccc(N4CCNCC4)cn3)nc2n(C2CCCC2)c1=O; test: as above
LEE011/Ribociclib = compound: CN(C)C(=O)c1cc2cnc(Nc3ccc(N4CCNCC4)cn3)nc2n1C1CCCC1 [LEE011/Ribociclib]; test: as above
[3] = compound: CCN1CCN(Cc2ccc(Nc3ncc(F)c(-c4cc(F)c5nc(C)n(C(C)C)c5c4)n3)nc2)CC1; test: as above
Flavopiridol = compound: CN1CC[C@H](c2c(O)cc(O)c3c(=O)cc(-c4ccccc4Cl)oc23)[C@H](O)C1 [Flavopiridol]; test: as above
BSJ-03-123 = compound: CC(=O)c1c(C)c2cnc(Nc3ccc(N4CCN(CCOCCOCCOCCNC(=O)COc5cccc6c5C(=O)N(C5CCC(=O)NC5=O)C6=O)CC4)cn3)nc2n(C2CCCC2)c1=O [BSJ-03-123]; test: as above
THZ1 = compound: CN(C)C/C=C/C(=O)Nc1ccc(C(=O)Nc2cccc(Nc3ncc(Cl)c(-c4c[nH]c5ccccc45)n3)c2)cc1 [THZ1]; test: as above
AZD6738 = compound: C[C@@H]1COCCN1c1cc(C2([S@](C)(=N)=O)CC2)nc(-c2cc[nH]c3nccc2-3)n1 [AZD6738]
BSJ-01-175 = compound: CN(C)C/C=C/C(=O)Nc1ccc(O[C@@H]2CCC[C@@H](Nc3ncc(Cl)c(-c4c[nH]c5ccccc45)n3)C2)cc1 [BSJ-01-175]
Vorinostat = compound: O=C(CCCCCCC(=O)Nc1ccccc1)NO [Vorinostat]
AZD2014 = compound: CNC(=O)c1cccc(-c2ccc3c(N4CCOC[C@@H]4C)nc(N4CCOC[C@@H]4C)nc3n2)c1 [AZD2014]
Tivantinib/ARQ197 = compound: O=C1NC(=O)[C@@H](c2cn3c4c(cccc24)CCC3)[C@@H]1c1c[nH]c2ccccc12 [Tivantinib/ARQ197]
AZD7762 = compound: NC(=O)Nc1cc(-c2cccc(F)c2)sc1C(=O)N[C@H]1CCCNC1 [AZD7762]
[4] = compound: COc1ccc2c(c1)[C@]1(C[C@H]1c1ccc3c(/C=C/c4ccc(CN5C[C@@H](C)O[C@@H](C)C5)cc4)n[nH]c3c1)C(=O)N2
[5] = compound: CCN1CCN(Cc2ccc(Nc3ncc(F)c(-c4cc(F)c5nc(C)n(C(C)C)c5c4)n3)nc2)CC1
[6] = compound: CC(=O)Nc1cccc(-n2c(=O)n(C3CC3)c(=O)c3c(Nc4ccc(I)cc4F)n(C)c(=O)c(C)c32)c1
[7] = compound: CCC1=CN=CN=C1N2CCN(CC2)CC3=NC4=C(N3)C=C(C=C4)C(F)(F)F
Ipatasertib/GDC0068 = compound: CC(C)NC[C@@H](C(=O)N1CCN(c2ncnc3c2[C@H](C)C[C@H]3O)CC1)c1ccc(Cl)cc1 [Ipatasertib/GDC0068]
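For GR50, 72 h in this document: breast cancer and non-malignant breast epithelial cell lines, Deep Dye Drop or Dye Drop imaging, nine half-log doses, GR normalized to time-zero plates and DMSO-only controls.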

## PDXHCI002
Neratinib/HKI272; 0.0003162 µM
  increase in dead-cell fraction: 0.0061
Neratinib/HKI272; 0.001 µM
  increase in dead-cell fraction: -0.001
Neratinib/HKI272; 0.003162 µM
  increase in dead-cell fraction: -0.0049
Neratinib/HKI272; 0.01 µM
  increase in dead-cell fraction: -0.0162
Neratinib/HKI272; 0.03162 µM
  increase in dead-cell fraction: 0.0001
Neratinib/HKI272; 0.1 µM
  increase in dead-cell fraction: -0.0122
Neratinib/HKI272; 0.3162 µM
  increase in dead-cell fraction: 0.0151
Neratinib/HKI272; 1 µM
  increase in dead-cell fraction: 0.0548
Neratinib/HKI272; 3.162 µM
  increase in dead-cell fraction: 0.31
[1]; 0.0001 µM
  increase in dead-cell fraction: -0.0076
[1]; 0.0003162 µM
  increase in dead-cell fraction: -0.0064
[1]; 0.001 µM
  increase in dead-cell fraction: -0.0055
[1]; 0.003162 µM
  increase in dead-cell fraction: -0.0087
[1]; 0.01 µM
  increase in dead-cell fraction: -0.0047
[1]; 0.03162 µM
  increase in dead-cell fraction: 0.451
[1]; 0.1 µM
  increase in dead-cell fraction: 0.504
[1]; 0.3162 µM
  increase in dead-cell fraction: 0.458
[1]; 1 µM
  increase in dead-cell fraction: 0.44
[2]; 0.0003162 µM
  increase in dead-cell fraction: -0.0007
[2]; 0.001 µM
  increase in dead-cell fraction: 0.0001
[2]; 0.003162 µM
  increase in dead-cell fraction: -0.0134
[2]; 0.01 µM
  increase in dead-cell fraction: -0.0207
[2]; 0.03162 µM
  increase in dead-cell fraction: -0.015
[2]; 0.1 µM
  increase in dead-cell fraction: -0.0124
[2]; 0.3162 µM
  increase in dead-cell fraction: -0.0203
[2]; 1 µM
  increase in dead-cell fraction: -0.0173
[2]; 3.162 µM
  increase in dead-cell fraction: -0.0092
LEE011/Ribociclib; 0.001 µM
  increase in dead-cell fraction: -0.0323
LEE011/Ribociclib; 0.003162 µM
  increase in dead-cell fraction: -0.0237
LEE011/Ribociclib; 0.01 µM
  increase in dead-cell fraction: -0.0167
LEE011/Ribociclib; 0.03162 µM
  increase in dead-cell fraction: -0.0095
LEE011/Ribociclib; 0.1 µM
  increase in dead-cell fraction: -0.0015
LEE011/Ribociclib; 0.3162 µM
  increase in dead-cell fraction: -0.0029
LEE011/Ribociclib; 1 µM
  increase in dead-cell fraction: -0.0185
LEE011/Ribociclib; 3.162 µM
  increase in dead-cell fraction: 0.0196
LEE011/Ribociclib; 10 µM
  increase in dead-cell fraction: 0.0853
[3]; 0.001 µM
  increase in dead-cell fraction: -0.0112
[3]; 0.003162 µM
  increase in dead-cell fraction: -0.0293
[3]; 0.01 µM
  increase in dead-cell fraction: -0.0317
[3]; 0.03162 µM
  increase in dead-cell fraction: -0.0292
[3]; 0.1 µM
  increase in dead-cell fraction: -0.0036
[3]; 0.3162 µM
  increase in dead-cell fraction: 0.0233
[3]; 1 µM
  increase in dead-cell fraction: 0.161
[3]; 3.162 µM
  increase in dead-cell fraction: 0.61
[3]; 10 µM
  increase in dead-cell fraction: 0.778
Flavopiridol; 0.0001 µM
  increase in dead-cell fraction: -0.0222
Flavopiridol; 0.0003162 µM
  increase in dead-cell fraction: 0.0027
Flavopiridol; 0.001 µM
  increase in dead-cell fraction: -0.0057
Flavopiridol; 0.003162 µM
  increase in dead-cell fraction: 0.0089
Flavopiridol; 0.01 µM
  increase in dead-cell fraction: 0.0079
Flavopiridol; 0.03162 µM
  increase in dead-cell fraction: 0
Flavopiridol; 0.1 µM
  increase in dead-cell fraction: 0.0552
Flavopiridol; 0.3162 µM
  increase in dead-cell fraction: 0.306
Flavopiridol; 1 µM
  increase in dead-cell fraction: 0.294
BSJ-03-123; 0.001 µM
  increase in dead-cell fraction: -0.0304
BSJ-03-123; 0.003162 µM
  increase in dead-cell fraction: -0.0395
BSJ-03-123; 0.01 µM
  increase in dead-cell fraction: -0.0247
BSJ-03-123; 0.03162 µM
  increase in dead-cell fraction: 0.0116
BSJ-03-123; 0.1 µM
  increase in dead-cell fraction: 0.0131
BSJ-03-123; 0.3162 µM
  increase in dead-cell fraction: 0.02
BSJ-03-123; 1 µM
  increase in dead-cell fraction: 0.121
BSJ-03-123; 3.162 µM
  increase in dead-cell fraction: 0.127
BSJ-03-123; 10 µM
  increase in dead-cell fraction: 0.299
THZ1; 0.0001 µM
  increase in dead-cell fraction: -0.0106
THZ1; 0.0003162 µM
  increase in dead-cell fraction: -0.015
THZ1; 0.001 µM
  increase in dead-cell fraction: -0.01
THZ1; 0.003162 µM
  increase in dead-cell fraction: -0.0152
THZ1; 0.01 µM
  increase in dead-cell fraction: 0.0629
THZ1; 0.03162 µM
  increase in dead-cell fraction: 0.221
THZ1; 0.1 µM
  increase in dead-cell fraction: 0.272
THZ1; 0.3162 µM
  increase in dead-cell fraction: 0.269
THZ1; 1 µM
  increase in dead-cell fraction: 0.282
AZD6738
  GR50, 72 h: > 10 µM
BSJ-01-175
  GR50, 72 h: 0.00607 µM
Vorinostat
  GR50, 72 h: 0.282 µM
AZD2014
  GR50, 72 h: 9.69 µM
Tivantinib/ARQ197
  GR50, 72 h: 0.238 µM
AZD7762
  GR50, 72 h: 0.0705 µM
[4]
  GR50, 72 h: 0.00689 µM
[5]
  GR50, 72 h: 0.0484 µM
[6]
  GR50, 72 h: > 1 µM
[7]
  GR50, 72 h: > 10 µM
Ipatasertib/GDC0068
  GR50, 72 h: > 10 µM
